The subject of series [1] is phosphorylation of RIPK1, RIPK3, and MLKL. Briefly: Western blot of phosphorylation of RIPK1, RIPK3 and MLKL in L929 cells upon necroptotic stimuli. Type of series: cell-based, mouse. Conditions: 2 h pretreatment, TNF-α/z-VAD 4 h. As to the method: (§1) The cell pellets were harvested and dissolved in lysis buffer (20 mM Tris–HCl, pH 7.4 150 mM NaCl, 1% Triton X-100, 1 mM Na3VO4, 10% glycerol, 25 mM β-glycerol-phosphate, 0.1 mM PMSF, with the Sigma phosphatase inhibitors and the Roche Pierce protease inhibitor set). The re-suspended cell pellet was then incubated on ice for 20 min, followed by centrifugation at 13000 × g for 20 min at 4°C. The supernatants were collected and protein concentrations were measured using the BCA Protein Assay Kit (Thermo Fisher Scientifc, United States). Finally, cell lysates were subjected for western-blot analysis of the indicated antibodies.
(§2) Cell lysates were prepared for immunoprecipitation using an anti-Flag antibody. The levels of RIPK3 and RIPK1 in the immunocomplex were determined by western blot analysis.
In general terms: Immunoblotting shows a protein as a band on a membrane.

A further series deals with CYP2C9 (Homo sapiens, UniProt P11712). Briefly: Cytochrome P450 inhibition, CYP2C9. Type of series: in vitro ADME. The procedure: (§3) Cytochrome P450 (CYP) inhibitory potency was determined by industrial standard methods as reported previously ([Dong et al., 2015]). Methods to determine potassium channel hERG inhibition and in vivo pharmacokinetic parameters have been previously published ([Lu et al., 2017]).

In a further series the test system is L929 cells. Briefly: HSV-1-induced necroptosis in L929 cells (cell viability). Conditions: 2 h pretreatment, 24 h after HSV-1 infection. The class given is cell-based, mouse. As to the method: (§4) Cells were seeded in 96-well plates and then treated as indicated. The cell viability was determined by assessment of ATP levels using the CellTiter-Glo Luminescent Cell Viability Assay kit following the manufacture’s instructions (Promega). Luminescence was calculated with SpectraMax i3x (Molecular Devices).
(§5) Cell viability was determined by measuring ATP levels. L, LPS; Z, z-VAD. […] After 5 h, cell viability was determined by measuring ATP levels and ICP6 mRNA expression was detected using viral genome extracted from cell culture supernatant. *P < 0.05. **P < 0.01. ***P < 0.001.

Another series deals with HeLa-MLKL (1–190) cells. Briefly: MLKL polymerization-induced necroptosis in HeLa-MLKL (1-190) cells (AP20187). The class given is cell-based, human. Conditions: doxycycline 1 μg/ml 24 h, 2 h pretreatment, AP20187 60 nM 24 h.
Description: Human colon cancer HT-29 and mouse fibrosarcoma L929 cells were from ATCC. Mouse embryonic fibroblasts (MEF), HT-29 cells stably expressing RIPK3-shRNA and shRNA resistant scramble Flag-tagged RIPK3 (W46), and NIH3T3 cell line stably expressing RIPK3 fused to mutant FK506-binding protein (NIH3T3-RIPK3) were kindly provided by Dr. Xiaodong Wang [National Institute of Biological Sciences (NIBS), Beijing]. HeLa-MLKL (1-190) cell line was a gift from Dr. Zhigao Wang (University of Texas Southwestern Medical Center at Dallas). These cells were cultured in Dulbecco’s modified Eagle’s medium (Hyclone) supplemeted with 10% fetal bovine serum (Invitrogen) and 2 mM L-glutamine (Invitrogen) in a humidified incubator at 37°C and 5% CO2. […]
as §4
In vitro kinase activity assays using recombinant RIPK3 and RIPK1 were performed as described in the section “Materials and Methods.” Data represent mean value ± standard deviation. […] Cell viability was determined by measuring ATP levels. […] Cell viability was determined by measuring ATP levels. […]

A short description of series [2]: Metabolic stability in human liver microsomes. Type of series: in vitro ADME. An excerpt: Encouraged by the in vitro and in vivo efficacy data, we sought to evaluate the preliminary drugability profile of Zharp-99.
(C) Pharmacokinetic parameters of Zharp-99 determined in male ICR mouse.

For series [3], the system named is phosphorylation of RIPK1, RIPK3, and MLKL. Briefly: Western blot of phosphorylation of RIPK1, RIPK3 and MLKL in HT-29 cells upon necroptotic stimuli. The class given is cell-based, human. Conditions: 2 h pretreatment, TNF-α/Smac mimetic/z-VAD 8 h. As to the method: as §1, §2
The target of a further series is T1, human RIPK1 (Homo sapiens, UniProt Q13546).
T1 construct: purchased SignalChem
Briefly: In vitro kinase activity assay (ADP-Glo), RIPK1. Type of series: biochemical. Conditions: at 10 μM; ATP 50 μM, MBP 20 μM. The procedure:
The recombinant human RIPK1 or RIPK3 protein was incubated with the control DMSO or the indicated compound for around 15 min in the assay buffer (25 mM HEPES PH7.2, 12.5 mM MnCl2, 5 mM EGTA, 20 mM MgCl2, 12.5 mM β-glycerol phosphate, 2 mM EDTA, and 2 mM DTT). ATP (50 μM) and the substrate MBP (20 μM) were then added to the reaction at room temperature for 2 h. The kinase activity was calculated by the measuring the luminescence after the addition of the ADP-Glo Kinase Assay kit according to the manufacture’s instructions (Promega).
In vitro kinase activity assays using recombinant RIPK3 and RIPK1 were performed as described in the section “Materials and Methods.” Data represent mean value ± standard deviation. […] NIH3T3-RIPK3 cells were pretreated with indicated compounds for 2 h and subsequently treated with AP20187 (60 nM) for 24 h. Cell viability was determined by measuring ATP levels. […] HeLa-MLKL (1–190) cells were induced by doxycycline (1 μg/ml) for 24 h. Cells were pretreated with indicated compounds for 2 h and subsequently treated with AP20187 (60nM) for 24h. Cell viability was determined by measuring ATP levels. […] (F) MEFs were treated as indicated for 3 h. Cell lysates were harvest and subjected to western-blot analysis for full length and cleaved caspase 3.
(ADP-Glo turns the ADP formed in a reaction into a luminescent signal.)

Series [4] is described as follows: Metabolic stability in mouse liver microsomes. The class given is in vitro ADME. Conditions: mouse liver microsomes (MLM). (Microsomes from liver hold many membrane-bound enzymes, among them those of drug oxidation.)
The next series has as its target CYP3A4 (Homo sapiens, UniProt P08684). Briefly: Cytochrome P450 inhibition, CYP3A4. Type of series: in vitro ADME. The procedure: as §3
For the next series, the system named is HSV-1 ICP6. Briefly: Expression of viral gene ICP6 after HSV-1 infection of L929 cells (real-time PCR). The class given is cell-based, herpes simplex virus (HSV)-1. Conditions: culture supernatants 5 h post HSV-1 infection. The procedure: Total RNA was extracted using TRIzol Reagent (Invitrogen) from cell pellets. cDNA was synthesized using a Revert Aid First Strand cDNA kit (Thermo Fisher Scientifc). Real-time PCR was performed using corresponding primers and Power SYBR® Green PCR Master Mix (Invitrogen). The data were normalized to GAPDH. The primer sequences are as follows: ICP6 Forward: […] , Reverse: GGT […]; TNFα Forward: […] , Reverse: […]; CCL3 Forward: […] , Reverse: […]; CXCL1 Forward: GCACCC […] , Reverse: […] CAGA; GAPDH Forward: […] , Reverse: […] .
as §5

Structures are written as SMILES.

Sequence of CYP2C9 (P11712 whole entry): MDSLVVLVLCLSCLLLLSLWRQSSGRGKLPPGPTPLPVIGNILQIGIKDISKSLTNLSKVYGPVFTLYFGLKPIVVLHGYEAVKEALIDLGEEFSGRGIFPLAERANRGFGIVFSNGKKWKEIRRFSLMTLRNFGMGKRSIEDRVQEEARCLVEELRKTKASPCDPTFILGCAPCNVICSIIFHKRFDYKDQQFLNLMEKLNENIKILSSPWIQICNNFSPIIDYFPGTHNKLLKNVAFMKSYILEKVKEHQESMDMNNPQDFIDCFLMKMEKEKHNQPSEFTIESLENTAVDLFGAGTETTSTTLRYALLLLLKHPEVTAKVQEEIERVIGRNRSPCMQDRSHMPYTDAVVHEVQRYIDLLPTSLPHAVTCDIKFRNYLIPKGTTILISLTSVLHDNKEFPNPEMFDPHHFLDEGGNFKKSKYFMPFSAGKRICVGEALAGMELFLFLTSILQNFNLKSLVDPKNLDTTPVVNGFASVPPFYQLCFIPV
Sequence of CYP3A4 (P08684 whole entry): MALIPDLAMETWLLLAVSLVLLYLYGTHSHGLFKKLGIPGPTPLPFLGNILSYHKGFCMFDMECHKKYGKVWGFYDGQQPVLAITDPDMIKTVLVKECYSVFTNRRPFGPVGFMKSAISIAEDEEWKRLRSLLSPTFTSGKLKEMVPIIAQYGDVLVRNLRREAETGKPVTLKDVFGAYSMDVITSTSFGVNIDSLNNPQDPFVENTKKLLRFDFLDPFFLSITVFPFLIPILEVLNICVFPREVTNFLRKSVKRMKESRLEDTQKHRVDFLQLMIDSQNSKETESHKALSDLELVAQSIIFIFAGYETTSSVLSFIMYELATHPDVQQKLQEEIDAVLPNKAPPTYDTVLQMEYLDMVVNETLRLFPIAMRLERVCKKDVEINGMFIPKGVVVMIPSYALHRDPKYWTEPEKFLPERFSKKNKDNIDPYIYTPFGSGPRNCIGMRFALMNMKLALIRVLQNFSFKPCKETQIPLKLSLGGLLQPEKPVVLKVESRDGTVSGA
T1 sequence (Q13546 1-327 limits assumed): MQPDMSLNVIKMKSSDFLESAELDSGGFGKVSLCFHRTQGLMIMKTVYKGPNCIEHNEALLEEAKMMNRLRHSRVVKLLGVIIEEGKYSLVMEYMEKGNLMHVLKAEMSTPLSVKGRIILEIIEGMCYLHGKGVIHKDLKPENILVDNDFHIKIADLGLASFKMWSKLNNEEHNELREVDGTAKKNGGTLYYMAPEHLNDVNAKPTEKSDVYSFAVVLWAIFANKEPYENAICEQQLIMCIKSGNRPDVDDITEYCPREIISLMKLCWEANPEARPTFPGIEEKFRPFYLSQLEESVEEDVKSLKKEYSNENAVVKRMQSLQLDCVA

One may read the CLint scaled as the capacity of the preparation to metabolise the compound, expressed as a volume cleared per time. A low value points to slow turnover. One may read the half-life as the time needed for the level to fall by half in the phase considered. The low end stands for rapid decline, the high end for slow decline. For `O=S1(=O)C=C(C2CC2)c2cc3nccc(Nc4ccc5scnc5c4)c3cc21` [Zharp-99], in [1], the “phosphorylation of MLKL” value is on record as “blocked” and the “phosphorylation of RIPK3” value is “blocked”. The “% of CYP inhibiton 2C9” value on CYP2C9 (10 μM) is given as “did not inhibit”. For the same compound, on CYP2C9 (human, read-out: % of CYP inhibiton 2C9), the inhibition at 10 µM is -5.59%. Also, the “inhibition of HSV-1 induced necroptosis” value in the series on L929 cells was “significantly inhibited”. Further, the “polymerized MLKL-induced necroptosis” value in the series with HeLa-MLKL (1–190) cells is listed as “did not affect”. In addition, in series [2], the CLint scaled is 63 mL/min/kg, the Clint result is reported as “moderate” and the half-life was 28 min. In series [3], the “RIPK1 phosphorylation at S166” value is “did not reduce”, the “phosphorylation of MLKL” value is reported as “abolished” and the “phosphorylation of RIPK3” value was “abolished”. On human RIPK1, the “effect on RIPK1 kinase activity” value is reported as “did not affect”. In series [4], this compound came in with a half-life of 26 min. The “% of CYP inhibiton CYP3A4” value at CYP3A4 (10 μM) is listed as “did not inhibit”. Moreover, the inhibition at 10 µM at CYP3A4 (human, read-out: % of CYP inhibiton CYP3A4) amounted to 5.04%. In addition, in the series with HSV-1 ICP6, the “effect on expression of viral gene ICP6” value was “did not affect”.

Values taken from article PMC7753040, “Discovery of a Potent RIPK3 Inhibitor for the Amelioration of Necroptosis-Associated Inflammatory Injury” (Frontiers in Cell and Developmental Biology, 2020).
